Assay results from US20150359802A1, “PARENTERAL PHARMACEUTICAL FORM WHICH RELEASES AROMATSE INHIBITOR AND GESTAGENS, FOR THE TREATMENT OF ENDOMETRIOSIS” (Bayer Intellectual Property GmbH, priority 2010, published 2015).
“Also recorded” adds a separate entry of the source. Where two headings read alike, the source gives them in different places.

Columns and labels:
ovulation = settings: cited from earlier work
ovarian stimulation = settings: applied orally; cited from earlier work
plasma protein [1] = assay: Plasma protein binding by equilibrium dialysis, human plasma; type: in vitro ADME; settings: seven hours at 37° C.
[2] = as above; type: in vitro ADME; settings: human, plasma, seven hours at 37° C., read-out: Plasma protein binding [free fraction, fu]
ovary = assay: IVR study in cynomolgus monkeys: ultrasound scans of the ovary; type: in vivo, cynomolgus monkey; settings: for Ovarian cysts (ultrasound): cycle days 1-26
Excerpt: (§1) This comprises, among other things, cycle length, hormone receptors, morphology, endocrine system and regulation of the pituitary-ovarian axis (Borghi, M. R., R. Niesvisky, et al. (1983). “Administration of agonistic and antagonistic analogues of LH-RH induce anovulation in Macaca fasicularis.” Contraception 27(6): 619-626. Satoru Oneda, T. I., Katsumi Hamana (1996). “Ovarian Response to Exogenous Gonadotropins in Infant Cynomolgus Monkeys” International Journal of Toxicology, 15(3): 194-204). The pharmacodynamic and pharmacokinetic effect of intravaginally administered dosages of the aromatase inhibitor anastrozole was studied over the duration of a menstrual cycle by inserting a vaginal ring (IVR) having three different release rates. Among other things, the influence on the pituitary-ovarian axis was studied by determining the hormones estradiol, FSH, progesterone (the blood collections required for this were carried out over the entire experimental period; on day 1, four collections [0 h, 1 h, 3 h, 6 h after insertion of the IVR]; 1 collection each on days 2 and 3; after this time point, further collections followed on every 3rd day) and by ultrasound scans of the ovary (2× per week). Hormone determination was carried out according to the instructions provided by the supplier (estradiol [Siemens/DPC], progesterone [Beckmann-Culter/DSL], FSH [SHG]). An IVR having an initial in vitro release of 0 μg/day (placebo, no anastrozole), 390 μg/day, 85 μg/day or 27 μg/day was inserted into five animals per group one to three days after the last day of menstruation. Animals having irregular cycles were excluded from the experiment.

[3] = Estimation of IVR release rate and serum level for human application
Procedure: Subsequently, an estimation was made of the in vitro IVR release rate of an IVR for human application, which is necessary to achieve serum levels which led to a lowering of estradiol in the monkeys. […] The corresponding effective serum concentration in humans is estimated to be 9 μg/l, taking into account species-specific plasma protein binding, according to equation (1) below.
The mean in vivo release rate from the IVR which is necessary to achieve a plasma concentration of 9 μg/l in humans is calculated according to equation 2. For this equation, the plasma clearance of anastrozole in humans is required.

[4] = Plasma concentration of anastrozole after IVR administration and PK-based in vivo release; parameters: species or system female cynomolgus monkeys; settings: in vitro release in buffer vs calculated in vivo release, primate experiment
Procedure: The concentration of anastrozole in plasma samples was quantitatively determined by means of liquid-liquid extraction with liquid chromatography coupled to tandem mass spectrometry (LC/ESI-MS/MS). The analyses were carried out on an Agilent 1200 and an AB Sciex Triple Quad 5500 in positive ionization mode. For this purpose, 100 μl were initially taken from each plasma sample, admixed with 300 μl of an aqueous solution containing any non-structurally-related compound as internal standard, and extracted with 1.3 ml of methyl tert-butyl ether on a Perkin Elmer Mass Prep Station. […] 5 μl of this were injected into the LC/MS/MS, the m/z transition 294 ([M+H]+)→225 was recorded, and the signal was integrated with the AB Sciex Software Analyst 1.5. The concentrations of the plasma samples were determined from the resulting areas with the aid of a calibration curve present in the same sequence (0, 0.0500 to 1000 nM in plasma, n=2). […]
The mean plasma concentration (Css) of anastrozole was calculated as the mean value of all measured concentrations per dose group from the day after insertion of the IVR up to the end of the experiment.
The mean in vivo release rates (Rin) from the IVR were subsequently calculated according to the equation: Rin=Css*CL (see table X). […]

plasma protein [5] = assay: Plasma protein binding by equilibrium dialysis, cynomolgus monkey plasma; type: in vitro ADME; settings: seven hours at 37° C.
[6] = as above; type: in vitro ADME; settings: cynomolgus monkey, plasma, seven hours at 37° C., read-out: Plasma protein binding [free fraction, fu]
[7] = cited from earlier work
systemic estrogen levels = settings: 1 mg/day, post-menopausal women; cited from earlier work
pituitary-ovarian axis = assay: IVR study in cynomolgus monkeys: estradiol, FSH and progesterone levels; type: in vivo, cynomolgus monkey
Excerpt: as §1

in vivo = settings: female, cynomolgus monkey, plasma, iv, 0.2 mg/kg
[8] = IVR 27 μg/day initial in vitro release
[9] = IVR 85 μg/day initial in vitro release
[10] = IVR 390 μg/day initial in vitro release

## C#C[C@]1(O)CC[C@H]2[C@@H]3CCC4=CC(=O)CC[C@@H]4[C@H]3CC[C@@]21C [Norethisterone]
ovulation; Neumann et al
  Ovulation inhibition dose: 500 μg/day p.o.
ovulation; Taubert & Kuhl
  Ovulation inhibition dose: 400 μg/day p.o.

## C#C[C@]1(O)CC[C@H]2[C@@H]3CCC4=CCCC[C@@H]4[C@H]3CC[C@@]21C [Lynestrenol]
ovulation; Neumann et al
  Ovulation inhibition dose: 2000 μg/day p.o.
ovulation; Taubert & Kuhl
  Ovulation inhibition dose: 2000 μg/day p.o.

## CC(=O)O[C@]1(C(C)=O)CC[C@H]2[C@@H]3C[C@H](C)C4=CC(=O)CC[C@]4(C)[C@H]3CC[C@@]21C [Medroxyprogesterone acetate]
ovulation; Neumann et al
  Ovulation inhibition dose: 10 μg/day p.o.

## C[C@]12CCC(=O)C=C1[C@@H]1C[C@@H]1[C@H]1[C@@H]3[C@@H]4C[C@@H]4[C@@]4(CCC(=O)O4)[C@@]3(C)CC[C@@H]12 [Drospirenone]
ovulation; Neumann et al
  Ovulation inhibition dose: 2000 μg/day p.o.

## C#C[C@]1(O)CC[C@H]2[C@@H]3CCC4=CCCC[C@@H]4[C@H]3C(=C)C[C@@]21CC [Desogestrel]
ovulation; Neumann et al
  Ovulation inhibition dose: 60 μg/day p.o.
ovulation; Taubert & Kuhl
  Ovulation inhibition dose: 60 μg/day p.o.

## N#Cc1ccc(C(c2ccc(C#N)cc2)n2cncn2)cc1 [Letrozole, letrozole]
Ovarian stimulation
  oral dosage at which ovarian stimulation can occur: 2.5 mg

## CC(C)(C#N)c1cc(Cn2cncn2)cc(C(C)(C)C#N)c1 [Anastrozole, anastrozole]
Plasma protein [1]
  Plasma protein binding [free fraction, fu]: 52%
[2]
  fraction unbound at 7 h: 0.34
Ovarian stimulation
  oral dosage at which ovarian stimulation can occur: 1 mg
ovary; [8]
  Ovarian cysts (ultrasound): None
ovary; [9]
  Ovarian cysts (ultrasound): None
ovary; [10]
  Ovarian cysts (ultrasound): None
ovary; at the dosages used (27, 85, 390 μg/day)
  formation of ovarian cysts: no formation of ovarian cysts
[3]; […]
  initial in vitro release rate, for humans: about 350 μg per day
[3]; decrease 32% in 4 weeks, human dose
  Calculated initial in vitro IVR release rate (in buffer) with a decreasing release rate: ≈350 μg/day/60 kg patient
[3]; from monkey Css 5.9 μg/l, corrected for species-specific plasma protein binding
  corresponding effective serum concentration in humans: 9 µg/L
[3]; in vitro/in vivo correction factor 1.1
  constant in vitro release rate in buffer, for humans: 270 µg/day
[3]; to achieve levels that lowered estradiol in the monkeys
  human in vivo release rate, kept constant: 246 µg/day
[3]; to maintain in humans plasma levels of the effective dose in cynomolgus monkeys
  Calculated constant in vitro IVR release rate (in buffer): ≈270 μg/day/60 kg patient
[3]; to maintain plasma levels of the effective dose in cynomolgus monkeys
  Calculated constant in vivo IVR release rate in humans: ≈250 μg/day/60 kg patient
[4]
  in vitro/in vivo correction factor: 1.1
Plasma protein [5]
  Plasma protein binding [free fraction, fu]: 34%
[6]
  fraction unbound at 7 h: 0.52
[7]; Human, oral administration
  CLpl (CL/F): 0.33 mL/min/kg
[7]; humans
  oral bioavailability (F): approximately 1
Systemic estrogen levels
  reduction of systemic estrogen levels: more than 85%
pituitary-ovarian axis; 390 μg per day initial release, P value <0.0478
  estradiol levels during the follicular phase compared to the placebo group: lowers the estradiol levels significantly; also recorded: significant fall during the follicular phase
pituitary-ovarian axis; [8]
  E2 AUC (cycle days 1-26): 4862 ± 1986 pmol/L
  E2 AUC (follicular, cycle days 1-17): 3854 ± 927.5 pmol/L/day
  E2 AUC (luteal, cycle days 17-26): 403.2 ± 169.7 pmol/L
  FSH Mean level/day without preovulatory maximum: 5.52 ± 3.07 µg/L
  Progesterone Mean level/day Follicular phase: 5.57 ± 5.11 nmol/L
  Progesterone Mean level/day Luteal phase: 91.92 ± 52.78 nmol/L
pituitary-ovarian axis; [9]
  E2 AUC (cycle days 1-26): 4126 ± 2063 pmol/L
  E2 AUC (follicular, cycle days 1-17): 3235 ± 1101 pmol/L/day
  E2 AUC (luteal, cycle days 17-26): 605.1 ± 264.1 pmol/L
  FSH Mean level/day without preovulatory maximum: 4.90 ± 2.58 µg/L
  Progesterone Mean level/day Follicular phase: 6.58 ± 3.91 nmol/L
  Progesterone Mean level/day Luteal phase: 60.02 ± 22.65 nmol/L
pituitary-ovarian axis; [10]
  E2 AUC (cycle days 1-26): 2784 ± 999.8 pmol/L
  E2 AUC (follicular, cycle days 1-17): 1978 ± 350.6 pmol/L/day
  E2 AUC (luteal, cycle days 17-26): 342.9 ± 135.2 pmol/L
  FSH Mean level/day without preovulatory maximum: 4.83 ± 2.91 µg/L
  Progesterone Mean level/day Follicular phase: 4.58 ± 2.64 nmol/L
  Progesterone Mean level/day Luteal phase: 92.88 ± 55.50 nmol/L
pituitary-ovarian axis; at the dosages used (27, 85, 390 μg/day), compared to placebo
  counterregulation by the pituitary-ovarian axis: fails to occur
In vivo
  clearance: 9.67 mL/min/kg

## C#C[C@]1(O)C=C[C@H]2[C@@H]3CCC4=CC(=O)CC[C@@H]4[C@H]3CC[C@@]21CC [Gestodene]
ovulation; Neumann et al
  Ovulation inhibition dose: 30 μg/day p.o.
ovulation; Taubert & Kuhl
  Ovulation inhibition dose: 30 μg/day p.o.

## C[C@]12CCC3=C4CCC(=O)C=C4CC[C@H]3[C@@H]1CC[C@@]2(O)CC#N [Dienogest]
ovulation; Neumann et al
  Ovulation inhibition dose: 1000 μg/day p.o.

## CC(=O)O[C@]1(C(C)=O)CC[C@H]2[C@@H]3C=C(Cl)C4=CC(=O)CC[C@]4(C)[C@H]3CC[C@@]21C [Chlormanidone acetate]
ovulation; Neumann et al
  Ovulation inhibition dose: 1500-2000 μg/day p.o.
ovulation; Taubert & Kuhl
  Ovulation inhibition dose: 1700 μg/day p.o.

## C#C[C@]1(OC(C)=O)CC[C@H]2[C@@H]3CCC4=CC(=O)CC[C@@H]4[C@H]3CC[C@@]21C [Norethisterone acetate]
ovulation; Neumann et al
  Ovulation inhibition dose: 500 μg/day p.o.

## C#C[C@]1(OC(C)=O)CC[C@H]2[C@@H]3CCC4=CC(=NO)CC[C@@H]4[C@H]3CC[C@@]21CC (mixture of isomers) [Norgestimate]
ovulation; Neumann et al
  Ovulation inhibition dose: 200 μg/day p.o.
ovulation; Taubert & Kuhl
  Ovulation inhibition dose: 200 μg/day p.o.

## CC(=O)O[C@]1(C(C)=O)CC[C@H]2[C@@H]3C=C(Cl)C4=CC(=O)[C@@H]5C[C@@H]5[C@]4(C)[C@H]3CC[C@@]21C [Cyproterone acetate]
ovulation; Neumann et al
  Ovulation inhibition dose: 1000 μg/day p.o.
ovulation; Taubert & Kuhl
  Ovulation inhibition dose: 1000 μg/day p.o.

## C#C[C@]1(O)CC[C@H]2[C@@H]3CCC4=CC(=O)CC[C@@H]4[C@H]3C(=C)C[C@@]21CC [3-Keto-Desogestrel]
ovulation; Taubert & Kuhl
  Ovulation inhibition dose: 60 μg/day p.o.
